These results are taken from paper PMC3814616, “BRAF inhibitors suppress apoptosis through off-target inhibition of JNK signaling” (eLife, 2013).

“Also recorded” adds a separate entry of the source. Bounds are passed on as bounds.

For one data set, the target named is T1, TAOK1 (Homo sapiens, UniProt Q7L7X3).
T1 construct: purchased KINOMEscan (DiscoveRx), San Diego, CA
T1 sequence (Q7L7X3 1-1001): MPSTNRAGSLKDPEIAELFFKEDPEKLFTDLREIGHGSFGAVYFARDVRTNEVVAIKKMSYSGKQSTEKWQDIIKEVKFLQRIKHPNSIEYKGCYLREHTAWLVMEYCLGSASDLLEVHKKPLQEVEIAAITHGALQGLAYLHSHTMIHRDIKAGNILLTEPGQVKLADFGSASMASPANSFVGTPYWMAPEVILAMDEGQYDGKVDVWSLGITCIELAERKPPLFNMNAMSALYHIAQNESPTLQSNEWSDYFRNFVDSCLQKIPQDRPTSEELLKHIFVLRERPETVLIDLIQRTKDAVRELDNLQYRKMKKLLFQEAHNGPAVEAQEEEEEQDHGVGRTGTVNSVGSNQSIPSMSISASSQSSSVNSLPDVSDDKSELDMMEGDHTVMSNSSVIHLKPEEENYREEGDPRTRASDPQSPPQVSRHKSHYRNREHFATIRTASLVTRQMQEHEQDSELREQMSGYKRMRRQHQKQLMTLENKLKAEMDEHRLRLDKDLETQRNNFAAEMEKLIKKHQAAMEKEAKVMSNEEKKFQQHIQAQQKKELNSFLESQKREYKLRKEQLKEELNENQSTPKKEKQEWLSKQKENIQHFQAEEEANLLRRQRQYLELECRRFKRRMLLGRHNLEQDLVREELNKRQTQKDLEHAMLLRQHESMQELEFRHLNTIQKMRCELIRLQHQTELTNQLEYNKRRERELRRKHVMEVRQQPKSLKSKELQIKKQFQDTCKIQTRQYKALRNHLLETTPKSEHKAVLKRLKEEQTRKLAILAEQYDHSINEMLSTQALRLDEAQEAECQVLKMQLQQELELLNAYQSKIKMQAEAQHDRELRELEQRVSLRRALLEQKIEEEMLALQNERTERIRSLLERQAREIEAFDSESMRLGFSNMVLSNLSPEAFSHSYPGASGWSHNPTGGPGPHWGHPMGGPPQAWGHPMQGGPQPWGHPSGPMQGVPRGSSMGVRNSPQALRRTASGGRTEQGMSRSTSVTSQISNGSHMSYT
Details: method as in Tsai et al., 2008. Conditions: ref Tsai et al., 2008; read-out: Published biochemical IC50; cited from earlier work.

The next data set has as its system SRB1 cells. In words: UV-induced apoptosis, FACS Annexin V+, TMRE-low. It counts as cell-based, human. The settings on record: 1 kJ/m^2 UVB, 1 μM, 24 hr, vs DMSO.
A further data set has as its system phospho-JNK. In words: Western blot, UV-induced phospho-JNK in cSCC and HaCaT cell lines. It counts as cell-based, human. The settings on record: 1 μM, post-radiation.
Data set [1] has as its system COLO16 cells. In words: Doxorubicin-induced apoptosis, FACS. Conditions: 1 μM, 24 hr.
Another data set has as its system HaCaT cells. In words: UV-induced apoptosis, FACS Annexin V+, TMRE-low. It is filed as cell-based, human. Conditions: 1 kJ/m^2 UVB, 1 μM, 24 hr, vs DMSO.
Data set [2] concerns COLO16 cells. In words: UV-induced apoptosis, FACS Annexin V+, TMRE-low. It counts as cell-based, human. Conditions: 1 kJ/m^2 UVB, 1 μM, 24 hr, vs DMSO.
The subject of data set [3] is ZAK (T82Q)-expressing HaCaT cells. In words: UV-induced apoptosis in HaCaT cells overexpressing ZAK (WT) or gatekeeper mutant ZAK (T82Q). The settings on record: 1 μM, UVB 720 J/m^2, 24 hr.
Data set [4] concerns E1A and HRAS^G12V-transformed wild-type (WT) MEFs. In words: Soft agar colony formation. Conditions: 0.2 μM and 1.0 μM, 4–6 weeks. It is filed as cell-based, mouse.
A further data set has as its system Noxa mRNA. In words: qPCR of epidermis of irradiated mice. Conditions: oral gavage 40–80 mg/kg twice a day, 10 kJ/m^2 UVB. In general terms: In qPCR the cycle at which signal appears reflects the starting amount.
In data set [5] the test system is E1A and HRAS^G12V-transformed Craf−/− MEFs. In words: Soft agar colony formation. It is filed as cell-based, mouse. Conditions: 0.2 μM and 1.0 μM, 4–6 weeks.
A further data set concerns the target T2, MAP4K5 (Homo sapiens, UniProt Q9Y4K4).
T2 construct: purchased KINOMEscan (DiscoveRx), San Diego, CA
Also noted: method as in Bollag et al., 2010. Conditions: ref Bollag et al., 2010; read-out: Published biochemical IC50; cited from earlier work.

The next data set concerns the target T3, TAOK3 (Homo sapiens, UniProt Q9H2K8).
T3 construct: purchased KINOMEscan (DiscoveRx), San Diego, CA
Details: method as in Bollag et al., 2010. The settings on record: ref Bollag et al., 2010; read-out: Published biochemical IC50; cited from earlier work.

The target in another data set is T4, full length MAP4K5 (Homo sapiens, UniProt Q9Y4K4).
T4 construct: and full length MAP4K5 (MBP substrate, ATP 10 μM) (Reaction Biology); purchased Reaction Biology
T4 sequence (Q9Y4K4 whole entry): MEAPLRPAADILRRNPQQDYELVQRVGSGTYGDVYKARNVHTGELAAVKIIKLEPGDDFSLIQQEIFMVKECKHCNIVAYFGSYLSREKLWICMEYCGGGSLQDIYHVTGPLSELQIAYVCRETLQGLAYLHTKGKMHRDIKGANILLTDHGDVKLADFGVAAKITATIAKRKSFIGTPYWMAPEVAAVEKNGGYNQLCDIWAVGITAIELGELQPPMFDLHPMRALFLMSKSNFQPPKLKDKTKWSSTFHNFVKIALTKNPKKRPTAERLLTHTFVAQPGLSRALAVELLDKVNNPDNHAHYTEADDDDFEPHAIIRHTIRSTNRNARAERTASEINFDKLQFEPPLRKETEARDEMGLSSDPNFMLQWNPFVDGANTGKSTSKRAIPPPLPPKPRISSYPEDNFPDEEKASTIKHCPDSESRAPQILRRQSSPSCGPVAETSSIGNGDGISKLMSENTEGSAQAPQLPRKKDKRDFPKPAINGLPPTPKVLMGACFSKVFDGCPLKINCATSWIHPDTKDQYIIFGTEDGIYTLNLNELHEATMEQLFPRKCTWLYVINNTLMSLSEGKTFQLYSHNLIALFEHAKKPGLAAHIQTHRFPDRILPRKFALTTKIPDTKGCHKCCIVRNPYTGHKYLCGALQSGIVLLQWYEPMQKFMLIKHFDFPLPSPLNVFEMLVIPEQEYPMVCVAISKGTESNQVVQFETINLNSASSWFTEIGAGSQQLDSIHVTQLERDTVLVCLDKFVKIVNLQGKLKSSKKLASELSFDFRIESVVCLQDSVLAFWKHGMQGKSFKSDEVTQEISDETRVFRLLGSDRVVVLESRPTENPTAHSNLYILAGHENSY
In words: In vitro kinase assay (Reaction Biology). It is filed as biochemical.

The next data set concerns the target BRK (PTK6) (Homo sapiens, UniProt Q13882). The settings on record: ref Bollag et al., 2010; read-out: Published biochemical IC50; cited from earlier work.
The conditions of data set [6]: 960 mg PO BID, ref Flaherty et al., 2010; cited from earlier work.
The next data set concerns the target T5, BLK (Homo sapiens, UniProt P51451).
T5 construct: purchased KINOMEscan (DiscoveRx), San Diego, CA
Also noted: method as in Bollag et al., 2010. The settings on record: ref Bollag et al., 2010; read-out: Published biochemical IC50; cited from earlier work.

BRK (PTK6), sequence (Q13882 whole entry): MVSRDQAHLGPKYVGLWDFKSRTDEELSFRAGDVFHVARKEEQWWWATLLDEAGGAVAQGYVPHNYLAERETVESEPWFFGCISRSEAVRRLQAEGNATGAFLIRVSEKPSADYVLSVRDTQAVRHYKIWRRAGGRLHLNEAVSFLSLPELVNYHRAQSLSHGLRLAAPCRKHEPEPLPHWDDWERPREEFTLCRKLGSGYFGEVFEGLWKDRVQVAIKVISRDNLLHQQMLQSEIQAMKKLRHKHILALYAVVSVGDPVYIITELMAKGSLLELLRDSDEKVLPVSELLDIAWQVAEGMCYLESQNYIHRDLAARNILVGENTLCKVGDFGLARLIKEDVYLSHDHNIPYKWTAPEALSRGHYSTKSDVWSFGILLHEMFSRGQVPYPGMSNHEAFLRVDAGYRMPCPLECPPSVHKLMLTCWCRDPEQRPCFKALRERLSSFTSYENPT
T5 sequence (P51451 whole entry): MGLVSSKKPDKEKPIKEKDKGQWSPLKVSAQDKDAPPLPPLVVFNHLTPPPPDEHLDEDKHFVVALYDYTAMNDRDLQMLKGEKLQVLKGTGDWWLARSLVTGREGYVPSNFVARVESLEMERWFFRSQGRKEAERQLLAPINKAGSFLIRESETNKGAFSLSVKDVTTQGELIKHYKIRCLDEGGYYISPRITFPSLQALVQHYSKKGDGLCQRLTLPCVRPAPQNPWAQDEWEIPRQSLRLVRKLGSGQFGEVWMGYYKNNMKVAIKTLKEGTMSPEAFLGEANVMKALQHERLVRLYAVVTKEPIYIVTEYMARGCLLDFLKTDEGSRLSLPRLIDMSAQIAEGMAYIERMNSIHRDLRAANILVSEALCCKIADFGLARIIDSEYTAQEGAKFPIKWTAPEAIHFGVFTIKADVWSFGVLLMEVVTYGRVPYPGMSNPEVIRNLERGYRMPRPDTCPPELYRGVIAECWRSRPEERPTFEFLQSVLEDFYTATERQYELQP
T2 sequence (Q9Y4K4 whole entry): as the sequence (Q9Y4K4 whole entry) above
T3 sequence (Q9H2K8 whole entry): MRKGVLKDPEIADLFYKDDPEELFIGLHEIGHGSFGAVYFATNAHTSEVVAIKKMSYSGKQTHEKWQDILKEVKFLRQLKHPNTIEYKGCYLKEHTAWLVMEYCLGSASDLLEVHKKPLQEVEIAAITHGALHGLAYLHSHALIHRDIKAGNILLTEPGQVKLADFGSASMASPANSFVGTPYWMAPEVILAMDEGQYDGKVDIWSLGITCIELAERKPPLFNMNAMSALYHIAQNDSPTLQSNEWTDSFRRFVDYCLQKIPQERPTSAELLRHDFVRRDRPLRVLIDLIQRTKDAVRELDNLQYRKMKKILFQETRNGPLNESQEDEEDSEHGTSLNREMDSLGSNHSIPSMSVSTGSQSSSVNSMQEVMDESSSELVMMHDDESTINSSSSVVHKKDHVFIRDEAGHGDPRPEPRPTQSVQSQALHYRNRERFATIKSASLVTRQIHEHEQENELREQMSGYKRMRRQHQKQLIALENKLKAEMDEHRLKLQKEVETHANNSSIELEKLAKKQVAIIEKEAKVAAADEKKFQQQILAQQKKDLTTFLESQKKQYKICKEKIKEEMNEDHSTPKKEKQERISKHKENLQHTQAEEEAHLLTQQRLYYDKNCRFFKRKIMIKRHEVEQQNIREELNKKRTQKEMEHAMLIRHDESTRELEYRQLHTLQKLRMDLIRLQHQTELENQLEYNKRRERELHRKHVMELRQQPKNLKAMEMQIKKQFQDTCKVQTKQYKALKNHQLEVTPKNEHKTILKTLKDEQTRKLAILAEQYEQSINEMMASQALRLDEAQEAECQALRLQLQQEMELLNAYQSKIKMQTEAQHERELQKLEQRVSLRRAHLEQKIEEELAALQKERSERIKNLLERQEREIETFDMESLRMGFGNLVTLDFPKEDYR

Take `CCCS(=O)(=O)Nc1ccc(F)c(C(=O)c2c[nH]c3ncc(Cl)cc23)c1F` [PLX4720]: the IC50 (as a rule, the concentration at which inhibition is half-maximal) on TAOK1 was more than 5000 nM. In addition, the “suppression of UV-induced apoptosis” value in the data set with SRB1 cells, with HaCaT cells and in the data set on COLO16 cells [2] was “at least 70%” throughout. Also, the “UV-induced phospho-JNK levels” value in the data set on phospho-JNK was “significantly suppressed; also recorded: potently suppresses”. Further, the “doxorubicin-induced apoptosis (Annexin V+, TMRE-low cells)” value with COLO16 cells [1] is reported as “significant decrease in apoptosis”. The “apoptosis of drug-treated ZAK (T82Q)-expressing cells as share of the levels in untreated cells” value in data set [3] is given as 76.9%. Besides, the colony formation result in data set [4] and in data set [5] was “significant colony formation advantage” each time. In addition, the “UV-induced Noxa mRNA expression” value in the data set with Noxa mRNA is recorded as “significantly dampened”.
As for `CCCS(=O)(=O)Nc1ccc(F)c(C(=O)c2c[nH]c3ncc(-c4ccc(Cl)cc4)cc23)c1F` [vemurafenib], the IC50 at MAP4K5 is 51 nM; on TAOK3, more than 1000 nM; at full length MAP4K5 (MBP substrate, ATP 10 μM, read-out: biochemical IC50), 354 ± 26 nM; at BRK (PTK6), 213 nM; on BLK it was 547 nM. Further, the remaining activity at 1 µM on full length MAP4K5 (at 1 μM, read-out: residual activity) worked out at 25.7 ± 0.6%. The “mean sustained serum levels” value in [6] is 86 µM.
